Results reported in US20060110451A1, “Formulations of [1,4]diazepino[6,7,1-IJ]quinoline derivatives” (priority 2004, published 2006).
Read-outs that look alike come from different tables or passages of the source.

Experiment: Ascending multiple dose pharmacokinetics of enteric coated capsules in healthy subjects
Format: in vivo, human
Details: human, plasma, po, healthy subjects
Method: Ascending multiple doses of 25, 50, 75, 100, 150, and 250 mg Compound A.HCl were administered as twice-daily regimen (q12h) for 14 days in cohorts of 8 healthy subjects (6 active and 2 placebo). Blood samples for Compound A.HCl analysis were obtained on days 1 and 14 within 2 hours of test article administration and at various time points from 0.5 to 48 hours after test article administration. Doses were administered orally after an overnight fast of at least 10 hours on these 2 days. Trough PK samples were collected on days 7, 10, and 12 to assess whether steady-state had been reached.
A total of 48 subjects contributed pharmacokinetic data for this analysis. […] FIGS. 4A and 4B show the relationship between Cmax vs. dose and AUC vs. dose, respectively.

Cl.c1cc2c3c(c1)[C@H]1CCC[C@H]1CN3CCNC2 [Compound A.HCl, (9aR,12aS)-4,5,6,7,9,9a,10,11,12,12a-decahydrocyclopenta[c][1,4]diazepino[6,7,1-ij]quinoline hydrochloride]
half-life (75 mg, single oral dose 75 mg, day 1, read-out: t1/2 (Geom. Mean) (converted)): 7.93 h | half-life (75 mg, single oral dose 75 mg, day 1, read-out: t1/2 (Mean) (converted)): 8.22 h | AUC(0-t) (100 mg, multiple oral doses (q12 h) 100 mg, day 14, read-out: AUCss (AUC0-12) (Geom. Mean)): 49.2 ng·h/mL | AUC(0-t) (100 mg, multiple oral doses (q12 h) 100 mg, day 14, read-out: AUCss (AUC0-12) (Mean)): ~62.8 ng·h/mL | Cmax (100 mg, multiple oral doses (q12 h) 100 mg, day 14, read-out: Cmax (Geom. Mean)): 6.45 ng/mL | Cmax (100 mg, multiple oral doses (q12 h) 100 mg, day 14, read-out: Cmax (Mean)): 7.81 ng/mL | Tmax (100 mg, multiple oral doses (q12 h) 100 mg, day 14, read-out: Tmax (Geom. Mean)): 5.3 h | Tmax (100 mg, multiple oral doses (q12 h) 100 mg, day 14, read-out: Tmax (Mean)): 5.5 h | half-life (100 mg, multiple oral doses (q12 h) 100 mg, day 14, read-out: t1/2 (Geom. Mean) (converted)): 7.72 h | half-life (100 mg, multiple oral doses (q12 h) 100 mg, day 14, read-out: t1/2 (Mean) (converted)): 7.86 h | AUC(0-inf) (100 mg, single oral dose 100 mg, day 1, read-out: AUC0-∞ (Geom. Mean)): 47.2 ng·h/mL | AUC(0-inf) (100 mg, single oral dose 100 mg, day 1, read-out: AUC0-∞ (Mean)): 55.5 ng·h/mL | Cmax (100 mg, single oral dose 100 mg, day 1, read-out: Cmax (Geom. Mean)): 3.64 ng/mL | Cmax (100 mg, single oral dose 100 mg, day 1, read-out: Cmax (Mean)): 4.38 ng/mL | Tmax (100 mg, single oral dose 100 mg, day 1, read-out: Tmax (Geom. Mean)): 5.3 h | Tmax (100 mg, single oral dose 100 mg, day 1, read-out: Tmax (Mean)): 5.5 h | half-life (100 mg, single oral dose 100 mg, day 1, read-out: t1/2 (Geom. Mean) (converted)): 9.31 h | half-life (100 mg, single oral dose 100 mg, day 1, read-out: t1/2 (Mean) (converted)): 9.9 h | AUC(0-t) (150 mg, multiple oral doses (q12 h) 150 mg, day 14, read-out: AUCss (AUC0-12) (Geom. Mean)): 90.7 ng·h/mL | AUC(0-t) (150 mg, multiple oral doses (q12 h) 150 mg, day 14, read-out: AUCss (AUC0-12) (Mean)): ~110 ng·h/mL | Cmax (150 mg, multiple oral doses (q12 h) 150 mg, day 14, read-out: Cmax (Geom. Mean)): 10.7 ng/mL | Cmax (150 mg, multiple oral doses (q12 h) 150 mg, day 14, read-out: Cmax (Mean)): 13.1 ng/mL | Tmax (150 mg, multiple oral doses (q12 h) 150 mg, day 14, read-out: Tmax (Geom. Mean)): 5 h | Tmax (150 mg, multiple oral doses (q12 h) 150 mg, day 14, read-out: Tmax (Mean)): 5.2 h | half-life (150 mg, multiple oral doses (q12 h) 150 mg, day 14, read-out: t1/2 (Geom. Mean) (converted)): 7 h | half-life (150 mg, multiple oral doses (q12 h) 150 mg, day 14, read-out: t1/2 (Mean) (converted)): 7.04 h | AUC(0-inf) (150 mg, single oral dose 150 mg, day 1, read-out: AUC0-∞ (Geom. Mean)): 55.3 ng·h/mL | AUC(0-inf) (150 mg, single oral dose 150 mg, day 1, read-out: AUC0-∞ (Mean)): 70.2 ng·h/mL | Cmax (150 mg, single oral dose 150 mg, day 1, read-out: Cmax (Geom. Mean)): 3.67 ng/mL | Cmax (150 mg, single oral dose 150 mg, day 1, read-out: Cmax (Mean)): 5.05 ng/mL | Tmax (150 mg, single oral dose 150 mg, day 1, read-out: Tmax (Geom. Mean)): 5.6 h | Tmax (150 mg, single oral dose 150 mg, day 1, read-out: Tmax (Mean)): 5.7 h | half-life (150 mg, single oral dose 150 mg, day 1, read-out: t1/2 (Geom. Mean) (converted)): 9 h | half-life (150 mg, single oral dose 150 mg, day 1, read-out: t1/2 (Mean) (converted)): 9.08 h | AUC(0-t) (250 mg, multiple oral doses (q12 h) 250 mg, day 14, read-out: AUCss (AUC0-12) (Geom. Mean)): 218 ng·h/mL | AUC(0-t) (250 mg, multiple oral doses (q12 h) 250 mg, day 14, read-out: AUCss (AUC0-12) (Mean)): ~235 ng·h/mL | Cmax (250 mg, multiple oral doses (q12 h) 250 mg, day 14, read-out: Cmax (Geom. Mean)): 25.6 ng/mL | Cmax (250 mg, multiple oral doses (q12 h) 250 mg, day 14, read-out: Cmax (Mean)): 26.8 ng/mL | Tmax (250 mg, multiple oral doses (q12 h) 250 mg, day 14, read-out: Tmax (Geom. Mean)): 5.9 h | Tmax (250 mg, multiple oral doses (q12 h) 250 mg, day 14, read-out: Tmax (Mean)): 6.2 h | half-life (250 mg, multiple oral doses (q12 h) 250 mg, day 14, read-out: t1/2 (Geom. Mean) (converted)): 6.99 h | half-life (250 mg, multiple oral doses (q12 h) 250 mg, day 14, read-out: t1/2 (Mean) (converted)): 7.12 h | AUC(0-inf) (250 mg, single oral dose 250 mg, day 1, read-out: AUC0-∞ (Geom. Mean)): 84.7 ng·h/mL | AUC(0-inf) (250 mg, single oral dose 250 mg, day 1, read-out: AUC0-∞ (Mean)): 95.5 ng·h/mL | Cmax (250 mg, single oral dose 250 mg, day 1, read-out: Cmax (Geom. Mean)): 5.91 ng/mL | Cmax (250 mg, single oral dose 250 mg, day 1, read-out: Cmax (Mean)): 6.27 ng/mL | Tmax (250 mg, single oral dose 250 mg, day 1, read-out: Tmax (Geom. Mean)): 5.9 h | Tmax (250 mg, single oral dose 250 mg, day 1, read-out: Tmax (Mean)): 6 h | half-life (250 mg, single oral dose 250 mg, day 1, read-out: t1/2 (Geom. Mean) (converted)): 9.91 h | half-life (250 mg, single oral dose 250 mg, day 1, read-out: t1/2 (Mean) (converted)): 10.4 h
